For data set [1] the following is noted: cited from earlier work; for pKa: Table 1, pKa of the parent weak acid of the sodium salt; for pKa1 / pKa2: 25° C.
A short description of data set [2]: Acid/base dissociation constants of weak acids and their sodium salts. The following applies: anion of the salt in water; for Kb: Kb=10^−pKb.
For data set [3] the following is noted: at 25° C.; KCl and NaHCO3 values are assumed (NaHCO3: Leaist et al); cited from earlier work.
For data set [4] the following is noted: external use on burn wounds in HSST; cited from earlier work.

The text below walks through data of US12280144B2, “Gel compositions for mitigation of burn injuries, kits containing the gel compositions, and associated methods” (priority 2019, dated 2025).

On to `O=C([O-])CC(O)(CC(=O)[O-])C(=O)[O-].[Na+].[Na+].[Na+]` [Trisodium Citrate], for which, in data set [1], the pKa (usually the pH at which an ionisable group is half protonated) is on record as 3.14. Take `O=C([O-])O.[Na+]` [Sodium Bicarbonate]: the Kb in data set [2] is reported as 2.24*10^−6. Moreover, the negative-log Kb (pKb) (as a rule, the negative decadic logarithm of the Kb, by convention in mol/L) in data set [2] (pKb=14.00−pKa, 25° C.) was 7.65. In addition, in data set [1], the pKa1 is on record as 6.35, the pKa2 is given as 10.3 and the pKa is listed as 6.35. As to `O=C(O)CC(O)(CC(=O)O)C(=O)O` [Citric Acid], in data set [1], the pKa1 is 2.92, the pKa2 is on record as 4.28 and the pKa3 is reported as 5.21. On to `[Cl-].[K+]` [KCl], for which the “diffusivity in water DAB” value in data set [3] is 13.6·10^−6 cm^2/s. Turning to `CCN(CC)CC(=O)Nc1c(C)cccc1C` [lidocaine], in data set [4], the “dosage considered safe for external use” value is “less than 400 mg”.

Consider `CC(O)C(=O)O` (stereo not shown) [Lactic Acid], for which the Kb in data set [2] is recorded as 7.24*10^−12. On to `CC(O)C(=O)[O-].[Na+]` (stereo not shown) [Sodium Lactate], for which the pKa in data set [1] is 3.86.
